# Assay results taken from US11584737B2, “Heterocyclic compound” (TAKEDA PHARMACEUTICAL COMPANY LIMITED, priority 2018, dated 2023).
# Target: T1, CDK12/CycK complex (Homo sapiens, UniProt Q9NYV4)
# Test: Measurement of CDK12 inhibitory activity by binding assay (TR-FRET, 66 nM BODIPY-FL-labeled AT-7519)
# Details: inhibitory rate against CDK12 at 1 μM test compound, 66 nM BODIPY-FL-labeled AT-7519, 2 nM CDK12/CycK
# Description: Experimental Example 1: CDK12 Binding Assay
# (3) Measurement of CDK12 Inhibitory Activity by Binding Assay
# (§1) His-tagged CDK12/CycK complex was added to a binding assay buffer supplemented with BODIPY-FL labeled AT-7519, terbium-labeled streptavidin and biotin-labeled anti-histidine antibody, and the mixture was stood for not less than 60 min at room temperature. This solution was added to an assay plate containing a test compound dispensed therein, and the mixture was left standing for 120 min at room temperature. The final concentration of CDK12/CycK complex, BODIPY-FL-labeled AT-7519, terbium-labeled streptavidin and biotin-labeled anti-histidine antibody was set to 2 nM, 66 nM, 0.2 nM, and 0.4 nM, respectively. The fluorescence intensity derived from terbium and BODIPY-FL was measured using Envision. The signal value of each well was determined using the TR-FRET ratio calculated by the following formula. TR-FRET ratio=(fluorescence value of BODIPY-FL)÷(fluorescence value of terbium)
# (§2) The inhibitory rate (%) of the test compound against CDK12 was calculated by the following formula. Inhibitory rate (%)=(1−(TR-FRET ratio of test compound−blank)÷(control−blank))×100
# The TR-FRET ratio of the CDK12 enzyme reaction mixture under compound non-addition conditions is indicated as control, and the TR-FRET ratio under 3 μM AT-7519 addition conditions is indicated as blank.
# The inhibitory rate of the test compound against CDK12 at […] is shown below.
# T1 sequence (Q9NYV4 whole entry, species assumed): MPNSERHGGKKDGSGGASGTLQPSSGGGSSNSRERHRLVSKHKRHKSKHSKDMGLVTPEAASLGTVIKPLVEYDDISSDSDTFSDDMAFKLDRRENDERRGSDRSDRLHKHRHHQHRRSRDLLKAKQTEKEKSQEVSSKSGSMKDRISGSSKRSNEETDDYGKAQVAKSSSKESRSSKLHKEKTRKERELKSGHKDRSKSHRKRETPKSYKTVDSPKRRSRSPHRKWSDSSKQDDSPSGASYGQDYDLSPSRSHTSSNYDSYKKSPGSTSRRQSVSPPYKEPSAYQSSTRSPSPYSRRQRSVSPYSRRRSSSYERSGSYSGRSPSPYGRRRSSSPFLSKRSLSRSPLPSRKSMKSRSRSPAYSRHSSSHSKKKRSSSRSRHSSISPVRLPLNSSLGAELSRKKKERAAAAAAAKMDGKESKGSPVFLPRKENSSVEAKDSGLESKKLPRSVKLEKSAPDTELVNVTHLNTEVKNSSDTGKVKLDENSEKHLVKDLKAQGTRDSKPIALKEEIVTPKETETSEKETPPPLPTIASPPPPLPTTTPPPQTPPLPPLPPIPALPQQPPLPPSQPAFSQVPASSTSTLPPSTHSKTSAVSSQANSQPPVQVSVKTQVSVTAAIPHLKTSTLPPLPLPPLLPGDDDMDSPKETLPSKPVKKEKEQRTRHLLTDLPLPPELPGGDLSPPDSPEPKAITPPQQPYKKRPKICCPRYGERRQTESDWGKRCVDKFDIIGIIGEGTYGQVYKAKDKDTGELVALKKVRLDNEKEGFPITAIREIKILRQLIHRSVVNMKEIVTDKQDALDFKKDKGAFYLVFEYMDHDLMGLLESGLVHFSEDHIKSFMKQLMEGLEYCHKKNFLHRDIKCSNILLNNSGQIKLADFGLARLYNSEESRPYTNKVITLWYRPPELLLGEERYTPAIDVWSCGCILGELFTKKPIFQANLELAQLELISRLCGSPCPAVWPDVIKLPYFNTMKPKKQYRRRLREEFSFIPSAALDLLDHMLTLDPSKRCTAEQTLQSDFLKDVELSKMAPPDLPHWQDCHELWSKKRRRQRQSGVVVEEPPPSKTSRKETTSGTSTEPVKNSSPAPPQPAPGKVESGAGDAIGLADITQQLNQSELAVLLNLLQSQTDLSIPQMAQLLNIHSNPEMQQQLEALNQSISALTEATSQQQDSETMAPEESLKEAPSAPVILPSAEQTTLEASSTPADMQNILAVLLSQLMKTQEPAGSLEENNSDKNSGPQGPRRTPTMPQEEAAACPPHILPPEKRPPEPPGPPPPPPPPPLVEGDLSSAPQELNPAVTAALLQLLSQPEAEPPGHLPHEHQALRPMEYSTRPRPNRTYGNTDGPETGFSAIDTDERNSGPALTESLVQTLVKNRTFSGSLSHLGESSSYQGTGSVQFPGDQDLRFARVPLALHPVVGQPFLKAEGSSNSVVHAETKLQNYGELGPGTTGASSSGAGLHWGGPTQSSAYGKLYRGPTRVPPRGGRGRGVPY
# T1 sequence (O75909 whole entry partner, species assumed): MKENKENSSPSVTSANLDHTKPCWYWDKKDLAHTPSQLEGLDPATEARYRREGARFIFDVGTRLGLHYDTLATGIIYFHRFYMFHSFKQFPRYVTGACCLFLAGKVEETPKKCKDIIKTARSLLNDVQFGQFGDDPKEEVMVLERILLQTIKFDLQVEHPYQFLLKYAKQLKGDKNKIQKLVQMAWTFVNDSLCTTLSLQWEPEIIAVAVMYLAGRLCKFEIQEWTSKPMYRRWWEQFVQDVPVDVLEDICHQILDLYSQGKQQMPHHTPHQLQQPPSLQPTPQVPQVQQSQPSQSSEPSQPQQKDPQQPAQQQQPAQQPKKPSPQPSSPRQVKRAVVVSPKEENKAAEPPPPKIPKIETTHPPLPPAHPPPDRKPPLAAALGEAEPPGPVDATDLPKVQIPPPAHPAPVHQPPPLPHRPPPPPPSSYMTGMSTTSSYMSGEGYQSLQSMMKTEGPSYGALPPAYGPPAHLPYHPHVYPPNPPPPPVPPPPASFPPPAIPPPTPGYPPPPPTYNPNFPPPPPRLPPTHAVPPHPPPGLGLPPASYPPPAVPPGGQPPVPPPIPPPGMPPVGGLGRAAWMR
row,inhibition at 1 µM [%],Compound
1,103,"COc1ncc(-c2ccc(N(C(=O)N[C@H](C)c3ccccc3)[C@H]3CC[C@H](Nc4ncc(C(F)(F)F)c(N5CC(C)(O)C5)n4)CC3)nc2)cn1 [Example 631, 1-(trans-4-((4-(3-hydroxy-3-methylazetidin-1-yl)-5-(trifluoromethyl)pyrimidin-2-yl)amino)cyclohexyl)-1-(5-(2-methoxypyrimidin-5-yl)pyridin-2-yl)-3-((1R)-1-phenylethyl)urea]"
2,102,"COc1ncc(-c2ccc(N(C(=O)N[C@@H](C)c3ccccc3)[C@H]3CC[C@H](Nc4ncc(C(F)(F)F)c(N5CC(C)(O)C5)n4)CC3)nc2)cn1 [Example 633, 1-(trans-4-((4-(3-hydroxy-3-methylazetidin-1-yl)-5-(trifluoromethyl)pyrimidin-2-yl)amino)cyclohexyl)-1-(5-(2-methoxypyrimidin-5-yl)pyridin-2-yl)-3-((1S)-1-phenylethyl)urea]"

# Target: T1, CDK12/CycK complex
# Test: Measurement of CDK12 inhibitory activity by binding assay (BODIPY-FL labeled AT-7519 high concentration conditions, 1320 nM)
# Details: inhibitory rate against CDK12 at 1 μM test compound, 1320 nM BODIPY-FL-labeled AT-7519, 8 nM CDK12/CycK
# Description: (4) Measurement of CDK12 Inhibitory Activity by Binding Assay (BODIPY-FL Labeled AT-7519 High Concentration Conditions)
# as §1, with “complex was blended with a binding” for “complex was added to a binding”, “biotin-labeled anti-histidine antibody. This solution” for “biotin-labeled anti-histidine antibody, and the mixture was stood for not less than 60 min at room temperature. This solution”, “set to 8 nM, 1320” for “set to 2 nM, 66”, “8 nM, 1320 nM, 0.2” for “2 nM, 66 nM, 0.2”
# as §2
# The TR-FRET ratio of the CDK12 enzyme reaction mixture under compound non-addition conditions is indicated as control, and the TR-FRET ratio under 30 μM AT-7519 addition conditions is indicated as blank.
# The inhibitory rate of the test compound against CDK12 at 1 μM is shown below.
row,inhibition at 1 µM [%],Compound
1,94,"COc1ncc(-c2cnc(N(C(=O)NCC(F)F)[C@H]3CC[C@H](Nc4ncc(C(F)(F)F)c(-c5n[nH]c(C)c5Cl)n4)CC3)cn2)cn1 [Example 745, 1-(trans-4-((4-(4-chloro-5-methyl-1H-pyrazol-3-yl)-5-(trifluoromethyl)pyrimidin-2-yl)amino)cyclohexyl)-3-(2,2-difluoroethyl)-1-(5-(2-methoxypyrimidin-5-yl)pyrazin-2-yl)urea]"
2,91,"COc1ncc(-c2cnc(N(C(=O)N3CC(C)(O)C3)[C@H]3CC[C@H](Nc4ncc(C(F)(F)F)c(-c5n[nH]cc5Cl)n4)CC3)cn2)cn1 [Example 746, N-(trans-4-((4-(4-chloro-1H-pyrazol-3-yl)-5-(trifluoro-methyl)pyrimidin-2-yl)-amino)cyclohexyl)-3-hydroxy-N-(5-(2-methoxypyrimidin-5-yl)pyrazin-2-yl)-3-methylazetidine-1-carboxamide]"
3,90,"COCCNC(=O)N(c1cnc(-c2cnc(OC)nc2)cn1)[C@H]1CC[C@H](Nc2ncc(C(F)(F)F)c(-c3nn(C(F)F)cc3Cl)n2)CC1 [Example 752, 1-(trans-4-((4-(4-chloro-1-(difluoromethyl)-1H-pyrazol-3-yl)-5-(trifluoromethyl)-pyrimidin-2-yl)amino)cyclo-hexyl)-3-(2-methoxyethyl)-1-(5-(2-methoxypyrimidin-5-yl)pyrazin-2-yl)urea]"
4,95,"COCC(=O)N(c1cnc(-c2cnc(OC)nc2)cn1)[C@H]1CC[C@H](Nc2ncc(C(F)(F)F)c(-c3n[nH]cc3Cl)n2)CC1 [Example 796, N-(trans-4-((4-(4-chloro-1H-pyrazol-3-yl)-5-(trifluoromethyl)pyrimidin-2-yl)amino)cyclohexyl)-2-methoxy-N-(5-(2-methoxypyrimidin-5-yl)pyrazin-2-yl)acetamide]"
5,92,"COCC(=O)N(c1cnc(-c2cnc(OC)nc2)cn1)[C@H]1CC[C@H](Nc2ncc(C(F)(F)F)c(-c3ccn(C(F)F)n3)n2)CC1 [Example 797, N-(trans-4-((4-(1-(difluoro-methyl)-1H-pyrazol-3-yl)-5-(trifluoromethyl)pyrimidin-2-yl)amino)cyclohexyl)-2-methoxy-N-(5-(2-methoxypyrimidin-5-yl)pyrazin-2-yl)acetamide]"
6,91,"COCCOC(=O)N(c1cnc(-c2cnc(OC)nc2)cn1)[C@H]1CC[C@H](Nc2ncc(C(F)(F)F)c(-c3cncc(S(C)(=O)=O)c3)n2)CC1 [Example 800, 2-methoxyethyl (trans-4-((4-(5-(methanesulfonyl)pyridin-3-yl)-5-(trifluoromethyl)pyrimidin-2-yl)amino)cyclohexyl) (5-(2-methoxypyrimidin-5-yl)pyrazin-2-yl)carbamate]"

# Further lines, the compound ahead of its results:
row,Compound,inhibition at 1 µM [%]
1,"COc1ncc(-c2cnc(N(C(=O)NCc3ccccc3)[C@H]3CC[C@H](Nc4ncc(C(F)(F)F)c(OC5(C)COC5)n4)CC3)cn2)cn1 [Example 640, 3-benzyl-1-(5-(2-methoxypyrimidin-5-yl)pyrazin-2-yl)-1-(trans-4-((4-((3-methyloxetan-3-yl)oxy)-5-(trifluoromethyl)pyrimidin-2-yl)amino)cyclohexyl)urea]",105
2,"COc1ncc(-c2ccc(N(C(=O)NCC(F)F)[C@H]3CC[C@H](Nc4ncc(C(F)(F)F)c(-c5cncc(S(C)(=O)=O)c5)n4)CC3)nc2)cn1 [Example 741, 3-(2,2-difluoroethyl)-1-(trans-4-((4-(5-(methane-sulfonyl)pyridin-3-yl)-5-(trifluoromethyl)pyrimidin-2-yl)amino)cyclohexyl)-1-(5-(2-methoxypyrimidin-5-yl)pyridin-2-yl)urea]",87
3,"COCCNC(=O)N(c1cnc(-c2cnn(C)c2)cn1)[C@H]1CC[C@H](Nc2ncc(C(F)(F)F)c(-c3nn(C(F)F)cc3Cl)n2)CC1 [Example 756, 1-(trans-4-((4-(4-chloro-1-(difluoromethyl)-1H-pyrazol-3-yl)-5-(trifluoromethyl)-pyrimidin-2-yl)amino)cyclo-hexyl)-3-(2-methoxyethyl)-1-(5-(1-methyl-1H-pyrazol-4-yl)pyrazin-2-yl)urea]",90
4,"Cn1ccc(-c2cnc(N(C(=O)NCC(F)(F)F)[C@H]3CC[C@H](Nc4ncc(C(F)(F)F)c(-c5ccn(C(F)F)n5)n4)CC3)cn2)cc1=O [Example 768, 1-(trans-4-((4-(1-(difluoromethyl)-1H-pyrazol-3-yl)-5-(trifluoromethyl)-pyrimidin-2-yl)amino)-cyclohexyl)-1-(5-(1-methyl-2-oxo-1,2-dihydropyridin-4-yl)-pyrazin-2-yl)-3-(2,2,2-trifluoroethyl)urea]",92
5,"COc1ncc(-c2cnc(N(C(=O)NCC(F)F)[C@H]3CC[C@H](Nc4ncc(C(F)(F)F)c(OC5(C)COC5)n4)CC3)cn2)cn1 [Example 777, 3-(2,2-difluoroethyl)-1-(5-(2-methoxypyrimidin-5-yl)pyrazin-2-yl)-1-(trans-4-((4-((3-methyloxetan-3-yl)oxy)-5-(trifluoromethyl)pyrimidin-2-yl)amino)cyclohexyl)urea]",92
6,"COc1ncc(-c2cnc(N(C(=O)OCCN3CCOCC3)[C@H]3CC[C@H](Nc4ncc(C(F)(F)F)c(-c5cncc(S(C)(=O)=O)c5)n4)CC3)cn2)cn1 [Example 808, 2-(morpholin-4-yl)ethyl (trans-4-((4-(5-(methanesulfonyl)-pyridin-3-yl)-5-(trifluoro-methyl)pyrimidin-2-yl)amino)cyclohexyl) (5-(2-methoxypyrimidin-5-yl)pyrazin-2-yl)carbamate]",99
7,"COCC(=O)N(c1cnc(-c2cnn(C)c2)cn1)[C@H]1CC[C@H](Nc2ncc(C(F)(F)F)c(-c3ccn(C(F)F)n3)n2)CC1 [Example 811, N-(trans-4-((4-(1-(difluoromethyl)-1H-pyrazol-3-yl)-5-(trifluoromethyl)pyrimidin-2-yl)amino)cyclohexyl)-2-methoxy-N-(5-(1-methyl-1H-pyrazol-4-yl)pyrazin-2-yl)acetamide]",94
8,"COCC(=O)N(c1cnc(-c2cnn(C)c2)cn1)[C@H]1CC[C@H](Nc2ncc(C(F)(F)F)c(-c3cncc(S(C)(=O)=O)c3)n2)CC1 [Example 812, N-(trans-4-((4-(5-(methanesulfonyl)pyridin-3-yl)-5-(trifluoromethyl)pyrimidin-2-yl)amino)cyclohexyl)-2-methoxy-N-(5-(1-methyl-1H-pyrazol-4-yl)pyrazin-2-yl)acetamide]",95
